Source: patent US20250296922A1, “POLYSUBSTITUTED PYRROLIDINE DERIVATIVE, PREPARATION METHOD THEREFOR AND USE THEREOF” (SHANGHAI WENNAI THERAPEUTICS CO LTD, priority 2023, published 2025)
Where two headings read alike, the source gives them in different places.

Assays:
[1] = Pharmacokinetic experiment, rat test, gavage administration; format: in vivo, SD rats; conditions: 10 mg/kg; for AUC(0-t) / Cmax: Sprague-Dawley, rat, plasma, po; for AUC(0-t): read-out: Area under the curve AUC0-t; for Cmax: read-out: blood concentration Cmax
From the text: 4.1.1 Abstract: SD rats were used as test animals, the LC/MS/MS method was applied to determine the drug concentration of the compounds of the Examples in plasma at different points after gavage administration to rats, to study the pharmacokinetic behavior of the compounds of the present invention in rats, and to evaluate their pharmacokinetic characteristics.
4.1.2.2 Test animals: 6 male SD rats and 6 female rats, all provided by Shanghai Jihui Laboratory Animal Breeding Co. The animals were fasted for at least 12 hours before administration and food supply was resumed 4 hours after administration.
4.1.2.3 Drug Preparation: Weighed an amount of the test compound separately and prepared a completely clear solution with a final concentration of 1 mg/mL using a mixed solvent of DMSO: Solutol: Saline (5%: 5%: 90%).
4.1.2.4 Administration: a dose of 10 mg/kg, a volume of 10 mL/kg.
4.1.3 Test operation: 0.1 mL blood samples were collected from the orbit before and 15 min, 30 min, 1 h, 2h, 4 h, 6h, 8 h, 10h, 24 h after the administration of the drug to male rats and placed in EDTA-K2 anticoagulant tubes. 0.03 mL blood samples were collected from the orbit before and 0.5h, 1 h, 2h, 3 h, 6h, 10 h and 24 h after administration to female rats. After blood samples were collected, they were placed in labelled centrifuge tubes in ice-water bath and rapidly centrifuged to separate the plasma at 4000 rpm for 10 min at 4° C. The plasma was stored at −70° C. or below for measurement.
The plasma samples were thawed at room temperature and 50 μL was added to 400 μL of acetonitrile containing the internal standard (40 ng/mL, terfenadine), vortexed for 1 min and centrifuged for 10 min at 4° C. and 15,400 g. 1 μL of the supernatant was injected for analysis.

[2] = Pharmacokinetic experiment, dog test, intravenous injection; format: in vivo; conditions: male Beagle, 0.5 mg/kg
From the text: 4.2.1 Abstract: Beagle was used as the test animal, the LC/MS/MS method was applied to determine the drug concentration in the plasma of Beagle at different points after intravenous injection of the compounds of the examples, to study the pharmacokinetic behavior of the compounds of the present invention in the Beagle, and to evaluate their pharmacokinetic characteristics.
4.2.2.2 Test animals: 4 male Beagles, provided by Jiangsu LingfuZhaoshengyuan Biotechnology Co. Fasting started at 5 p.m. on the day before drug administration, and the duration of fasting was no less than 12 hours, and food was resumed 4 hours after drug administration.
4.2.2.3 Drug Preparation: Weighed an amount of the test compound and prepared a completely clear solution with a final concentration of 1 mg/mL using a mixed solvent of DMSO: Solutol: Saline (5%: 5%: 90%).
4.2.2.4 Administration: a dose of 0.5 mg/kg, a volume of 0.5 mL/kg.
4.2.3 Test operation: 0.4 mL of blood samples were collected from the forelimb vein of male Beagles before and 5 min, 15 min, 30 min, 1 h, 2h, 4 h, 6h, 8 h, 10 h and 24 h after intravenous administration and placed in EDTA-K2 anticoagulant tubes. After blood samples were collected, they were placed in labelled centrifuge tubes in ice water bath and rapidly centrifuged to separate the plasma. Centrifugation conditions: 4000 rpm, 10 min, 4° C., and the plasma was placed at −70° C. or below for measurement.
Plasma samples were thawed at room temperature and 50 μL was added to 400 μL of acetonitrile containing the internal standard (40 ng/mL, terfenadine), vortexed for 1 min and then centrifuged at 15400 g for 10 min at 4° C. The supernatant was diluted 10-fold with 80% acetonitrile in water and 1 μL sample was injected for analysis.

[3] = Proportion of free drug in human plasma, equilibrium dialysis; format: in vitro ADME; conditions: 2 μM compound, dialysis 4 h, 37° C.
Method: On the day of the experiment, human plasma samples (purchased from Biomex) were thawed under running tap water and centrifuged at 3220 g for 5 min to remove blood clots. The pH of the resulting plasma was measured and adjusted to pH 7.4+0.1 by using 1% phosphoric acid or 1 N sodium hydroxide as required.
Pretreating the dialysis membranes according to the manufacturer's instructions: The dialysis membrane strips were soaked in ultrapure water at room temperature for approximately 1 hour. Afterwards, each membrane strip containing 2 layers of membrane was separated and soaked in ethanol: water (20:80 v: v) for approximately 20 minutes, then it was ready for use or stored at 2-8° C. (stored for up to 1 month). The membranes were rinsed and soaked in ultrapure water for 20 min before experiments.
A 10 mM DMSO solution of test compound or control warfarin was taken and diluted to 400 μM with DMSO, then 3 μl was taken and added to 597 μl of blank plasma matrix solution to obtain 2 μM of compound solution respectively. 50 μl of test compound solution or control solution was transferred to a sample collection plate with 3 replicate wells per sample. […]
Unbonded %, bonded % and recovered % were calculated using the following formulae. […]

Q: Which “Area under the curve AUC0-t” value ([1]; female SD rats) does the source give for “4-((2R,3S,4S,5R)-3-(3,4-difluoro-2-(methoxy-d3)phenyl)-4,5-dimethyl-5-(trifluoromethyl) pyrrolidine-2-carboxamido)pyridinamide [Compound 11]” here?
A: 23809 ng·h/mL

Q: What about the “blood concentration Cmax” value ([1]; female SD rats) of the same compound?
A: 1850 ng/mL

Q: And the “Area under the curve AUC0-t” value ([1]; male SD rats)?
A: 4656 ng·h/mL

Q: And the “blood concentration Cmax” value ([1]; male SD rats)?
A: 1006 ng/mL

Q: What about the “Area under the curve AUC0-t” value [2] of the same compound?
A: 15644 ng·h/mL

Q: What about the “Clearance CL” value [2] of the same compound?
A: 0.134 mL/min/kg

Q: What about the “half-life t½” value [2] of the same compound?
A: 57.4 h

Q: And the “free drug proportion of in human plasma” value [3]?
A: 1.6%

Q: Which AUC(0-t) ([1]; female SD rats) does the source give for `COc1c([C@H]2[C@H](C(=O)Nc3ccnc(C(N)=O)c3)O[C@@](C)(C(F)(F)F)[C@H]2C)ccc(F)c1F` [VX-548, reference compound] here?
A: 10900 ng·h/mL

Q: What about the Cmax ([1]; female SD rats) of the same compound?
A: 719 ng/mL

Q: What about the AUC(0-t) ([1]; male SD rats) of the same compound?
A: 1210 ng·h/mL

Q: What about the Cmax ([1]; male SD rats) of the same compound?
A: 385 ng/mL

Q: What about the AUC(0-t) ([2]; dog, plasma, read-out: Area under the curve AUC0-t) of the same compound?
A: 11100 ng·h/mL

Q: And the clearance ([2]; dog, plasma, read-out: Clearance CL (converted))?
A: 0.438 mL/min/kg

Q: What about the half-life ([2]; dog, plasma, read-out: half-life t½ (converted)) of the same compound?
A: 19.7 h

Q: What about the “free drug proportion of in human plasma” value [3] of the same compound?
A: 1.0%
